From patent publication US20250098679A1, “HERBICIDAL PYRIDONE DERIVATIVES” (SYNGENTA CROP PROTECTION AG, priority 2021, published 2025)

Key:
Format in all cases: in vivo
Settings in all cases: evaluated after 13 days
[1] = tested on: Setaria faberi (SETFA); assay: Pre-emergence Test, Setaria faberi (SETFA)
[2] = tested on: Echinochloa crus-galli (ECHCG); assay: Pre-emergence Test, Echinochloa crus-galli (ECHCG)
[3] = tested on: Zea mays (ZEAMX); assay: Pre-emergence Test, Zea mays (ZEAMX)
[4] = tested on: Ipomoea hederacea (IPOHE); assay: Pre-emergence Test, Ipomoea hederacea (IPOHE)
[5] = tested on: Amaranthus palmeri (AMAPA); assay: Pre-emergence Test, Amaranthus palmeri (AMAPA)
[6] = tested on: Amaranthus retoflexus (AMARE); assay: Pre-emergence Test, Amaranthus retoflexus (AMARE)
[7] = tested on: Setaria faberi (SETFA); assay: Post-emergence Test, Setaria faberi (SETFA); set-up: key to percentage damage caused to the plant, SETFA (five-point scale): 5=81-100%, 4=61-80%, 3=41-60%, 2=21-40%, 1=0-20% damage
How it was run: (§1)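 Percent plant damage was rated 13 days post-application on a 1–5 scale (1=0-20%, 5=81-100%). Application used an aqueous acetone (50:50)/0.5% Tween 20 spray, normally 1000 g/ha, with controlled glasshouse conditions (24/16 °C, 14 h light, 65% humidity).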

[8] = tested on: Echinochloa crus-galli (ECHCG); assay: Post-emergence Test, Echinochloa crus-galli (ECHCG); set-up: key to percentage damage caused to the plant, ECHCG (five-point scale): 5=81-100%, 4=61-80%, 3=41-60%, 2=21-40%, 1=0-20% damage
How it was run: as §1

[9] = tested on: Zea mays (ZEAMX); assay: Post-emergence Test, Zea mays (ZEAMX); set-up: key to percentage damage caused to the plant, ZEAMX (five-point scale): 5=81-100%, 4=61-80%, 3=41-60%, 2=21-40%, 1=0-20% damage
How it was run: as §1

[10] = tested on: Ipomoea hederacea (IPOHE); assay: Post-emergence Test, Ipomoea hederacea (IPOHE); set-up: key to percentage damage caused to the plant, IPOHE (five-point scale): 5=81-100%, 4=61-80%, 3=41-60%, 2=21-40%, 1=0-20% damage
How it was run: as §1

[11] = tested on: Amaranthus palmeri (AMAPA); assay: Post-emergence Test, Amaranthus palmeri (AMAPA); set-up: key: 5=81-100%, 4=61-80%, 3=41-60%, 2=21-40%, 1=0-20% damage
How it was run: as §1

[12] = tested on: Amaranthus retoflexus (AMARE); assay: Post-emergence Test, Amaranthus retoflexus (AMARE); set-up: key to percentage damage caused to the plant, AMARE (five-point scale): 5=81-100%, 4=61-80%, 3=41-60%, 2=21-40%, 1=0-20% damage
How it was run: as §1

Row | Compound | Pre-emergence Test SETFA, percentage damage caused to the plant (five-point scale) ([1]; 250 g/Ha (*)) | Pre-emergence Test SETFA, percentage damage caused to the plant (five-point scale) ([1]; 1000 g/ha) | Pre-emergence Test ECHCG, percentage damage caused to the plant (five-point scale) ([2]; 250 g/Ha (*)) | Pre-emergence Test ECHCG, percentage damage caused to the plant (five-point scale) ([2]; 1000 g/ha) | Pre-emergence Test ZEAMX, percentage damage caused to the plant (five-point scale) ([3]; 1000 g/ha) | Pre-emergence Test IPOHE, percentage damage caused to the plant (five-point scale) ([4]; 1000 g/ha) | Pre-emergence Test AMAPA, percentage damage caused to the plant (five-point scale) ([5]; 1000 g/ha) | Pre-emergence Test AMARE, percentage damage caused to the plant (five-point scale) ([6]; 1000 g/ha) | percentage damage caused to the plant, SETFA (five-point scale) ([7]; 250 g/Ha) | percentage damage caused to the plant, SETFA (five-point scale) ([7]; 1000 g/ha) | percentage damage caused to the plant, ECHCG (five-point scale) ([8]; 250 g/Ha) | percentage damage caused to the plant, ECHCG (five-point scale) ([8]; 1000 g/ha) | percentage damage caused to the plant, ZEAMX (five-point scale) ([9]; 250 g/Ha) | percentage damage caused to the plant, ZEAMX (five-point scale) ([9]; 1000 g/ha) | percentage damage caused to the plant, IPOHE (five-point scale) ([10]; 250 g/Ha) | percentage damage caused to the plant, IPOHE (five-point scale) ([10]; 1000 g/ha) | percentage damage caused to the plant, AMAPA (five-point scale) ([11]; 250 g/Ha) | percentage damage caused to the plant, AMAPA (five-point scale) ([11]; 1000 g/ha) | percentage damage caused to the plant, AMARE (five-point scale) ([12]; 250 g/Ha) | percentage damage caused to the plant, AMARE (five-point scale) ([12]; 1000 g/ha) | other results
1 | CCn1c(Cn2cc(Cl)cn2)cc(=O)c(C(=O)O)c1-c1ccc(Cl)c(Cl)c1 [Compound 14, 6-[(4-chloropyrazol-1-yl)methyl]-2-(3,4-dichlorophenyl)-1-ethyl-4-oxo-pyridine-3-carboxylic acid] | 3 (3=41-60%) | 5 (5=81-100%) | 4 (4=61-80%) | 5 (5=81-100%) | 0 | 0 | 1 (1=0-20%) | 1 (1=0-20%) | 2 (2=21-40%) | 4 (4=61-80%) | 1 (1=0-20%) | 4 (4=61-80%) | 1 (1=0-20%) | 1 (1=0-20%) | 3 (3=41-60%) | 3 (3=41-60%) | 1 (1=0-20%) | 3 (3=41-60%) | 1 (1=0-20%) | 1 (1=0-20%) | Pre-emergence Test ZEAMX, percentage damage caused to the plant (five-point scale) ([3]; 250 g/Ha (*)): 0; Pre-emergence Test IPOHE, percentage damage caused to the plant (five-point scale) ([4]; 250 g/Ha (*)): 0; Pre-emergence Test AMAPA, percentage damage caused to the plant (five-point scale) ([5]; 250 g/Ha (*)): 0; Pre-emergence Test AMARE, percentage damage caused to the plant (five-point scale) ([6]; 250 g/Ha (*)): 0
2 | COCCn1c(Cn2ccc(Cl)n2)cc(=O)c(C(=O)O)c1-c1ccc(Cl)c(Cl)c1 [Compound 171, 6-[(3-chloropyrazol-1-yl)methyl]-2-(3,4-dichlorophenyl)-1-(2-methoxyethyl)-4-oxo-pyridine-3-carboxylic acid] |  | 4 (4=61-80%) |  | 1 (1=0-20%) | 1 (1=0-20%) | 0 | 0 | 1 (1=0-20%) | 0 | 3 (3=41-60%) | 1 (1=0-20%) | 3 (3=41-60%) | 1 (1=0-20%) | 1 (1=0-20%) | 1 (1=0-20%) | 1 (1=0-20%) | 0 | 0 | 0 | 0 | 
3 | CCn1c(Cn2cc(C(C)=O)c(C)n2)cc(=O)c(C(=O)O)c1-c1ccc(Cl)c(Cl)c1 [Compound 100, 6-[(4-acetyl-3-methyl-pyrazol-1-yl)methyl]-2-(3,4-dichlorophenyl)-1-ethyl-4-oxo-pyridine-3-carboxylic acid] |  | 1 (1=0-20%) |  | 0 | 0 | 2 (2=21-40%) | 2 (2=21-40%) | 2 (2=21-40%) | 0 | 2 (2=21-40%) | 3 (3=41-60%) | 2 (2=21-40%) | 0 | 1 (1=0-20%) | 0 | 3 (3=41-60%) | 0 | 2 (2=21-40%) | 0 | 2 (2=21-40%) | 
4 | CCn1c(Cn2cnc(Cl)n2)cc(=O)c(C(=O)O)c1-c1ccc(Cl)c(Cl)c1 [Compound 5, 6-[(3-chloro-1,2,4-triazol-1-yl)methyl]-2-(3,4-dichlorophenyl)-1-ethyl-4-oxo-pyridine-3-carboxylic acid] | 2 (2=21-40%) | 3 (3=41-60%) | 3 (3=41-60%) | 4 (4=61-80%) | 0 | 0 | 2 (2=21-40%) | 0 |  | 4 (4=61-80%) |  | 1 (1=0-20%) |  | 2 (2=21-40%) |  | 1 (1=0-20%) |  | 1 (1=0-20%) |  | 1 (1=0-20%) | Pre-emergence Test ZEAMX, percentage damage caused to the plant (five-point scale) ([3]; 250 g/Ha (*)): 0; Pre-emergence Test IPOHE, percentage damage caused to the plant (five-point scale) ([4]; 250 g/Ha (*)): 0; Pre-emergence Test AMAPA, percentage damage caused to the plant (five-point scale) ([5]; 250 g/Ha (*)): 0; Pre-emergence Test AMARE, percentage damage caused to the plant (five-point scale) ([6]; 250 g/Ha (*)): 0
5 | CCn1c(Cn2nccn2)cc(=O)c(C(=O)O)c1-c1ccc(Cl)c(Cl)c1 [Compound 48, 2-(3,4-dichlorophenyl)-1-ethyl-4-oxo-6-(triazol-2-ylmethyl)pyridine-3-carboxylic acid] |  | 5 (5=81-100%) |  | 5 (5=81-100%) | 0 | 0 | 1 (1=0-20%) | 0 | 4 (4=61-80%) | 4 (4=61-80%) | 3 (3=41-60%) | 5 (5=81-100%) | 0 | 3 (3=41-60%) | 4 (4=61-80%) | 2 (2=21-40%) | 1 (1=0-20%) | 3 (3=41-60%) | 1 (1=0-20%) | 0 | 
6 | CCn1c(Cn2cc([N+](=O)[O-])c(C)n2)cc(=O)c(C(=O)O)c1-c1ccc(Cl)c(Cl)c1 [Compound 64, 2-(3,4-dichlorophenyl)-1-ethyl-6-[(3-methyl-4-nitro-pyrazol-1-yl)methyl]-4-oxo-pyridine-3-carboxylic acid] | 2 (2=21-40%) |  | 0 |  |  |  |  |  | 2 (2=21-40%) |  | 3 (3=41-60%) |  | 1 (1=0-20%) |  | 1 (1=0-20%) |  | 2 (2=21-40%) |  | 3 (3=41-60%) |  | Pre-emergence Test ZEAMX, percentage damage caused to the plant (five-point scale) ([3]; 250 g/Ha (*)): 0; Pre-emergence Test IPOHE, percentage damage caused to the plant (five-point scale) ([4]; 250 g/Ha (*)): 3 (3=41-60%); Pre-emergence Test AMAPA, percentage damage caused to the plant (five-point scale) ([5]; 250 g/Ha (*)): 1 (1=0-20%); Pre-emergence Test AMARE, percentage damage caused to the plant (five-point scale) ([6]; 250 g/Ha (*)): 0
